The results in this text go back to patent US20180194762A1 (Pharmacyclics LLC, priority 2017, published 2018).

Where two headings read alike, the source gives them in different places.

Holding throughout (type): biochemical
For one assay, the target named is T1, TEC (Homo sapiens, UniProt P42680).
T1 sequence (P42680 1-631): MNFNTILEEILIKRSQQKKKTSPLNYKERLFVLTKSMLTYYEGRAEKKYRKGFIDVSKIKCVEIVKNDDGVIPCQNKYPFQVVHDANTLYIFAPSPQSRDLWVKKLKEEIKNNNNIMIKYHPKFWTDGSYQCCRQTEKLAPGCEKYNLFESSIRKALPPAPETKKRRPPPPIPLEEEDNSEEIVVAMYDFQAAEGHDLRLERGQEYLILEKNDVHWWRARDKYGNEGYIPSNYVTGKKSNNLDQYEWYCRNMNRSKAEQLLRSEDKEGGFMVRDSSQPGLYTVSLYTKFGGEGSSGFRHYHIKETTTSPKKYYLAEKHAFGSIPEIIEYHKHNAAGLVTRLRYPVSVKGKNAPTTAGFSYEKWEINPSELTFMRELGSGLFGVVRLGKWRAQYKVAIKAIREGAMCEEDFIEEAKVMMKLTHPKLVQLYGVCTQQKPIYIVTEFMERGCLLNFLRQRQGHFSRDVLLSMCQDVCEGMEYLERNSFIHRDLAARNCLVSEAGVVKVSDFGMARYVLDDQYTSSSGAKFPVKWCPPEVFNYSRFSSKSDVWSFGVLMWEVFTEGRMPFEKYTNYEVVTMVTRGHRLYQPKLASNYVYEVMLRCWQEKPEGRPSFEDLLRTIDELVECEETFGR
Nature of the assay: Inhibition of a panel of kinases (in vitro HotSpot kinase assay, 33P-ATP, 1 μM ATP). To be noted: for IC50: HotSpot kinase assay, 1 μM ATP; for TEC/Btk: ratio of TEC IC50 to Btk IC50 (selectivity). The gist of the method:
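Radiometric read-out: 33P transfer to a suitable substrate by each purified enzyme, ATP at 1 μM. Values are degree of inhibition.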

A further assay has as its target T2, panel of kinases (Homo sapiens, UniProt P51813).
T2 sequence (P51813 1-675): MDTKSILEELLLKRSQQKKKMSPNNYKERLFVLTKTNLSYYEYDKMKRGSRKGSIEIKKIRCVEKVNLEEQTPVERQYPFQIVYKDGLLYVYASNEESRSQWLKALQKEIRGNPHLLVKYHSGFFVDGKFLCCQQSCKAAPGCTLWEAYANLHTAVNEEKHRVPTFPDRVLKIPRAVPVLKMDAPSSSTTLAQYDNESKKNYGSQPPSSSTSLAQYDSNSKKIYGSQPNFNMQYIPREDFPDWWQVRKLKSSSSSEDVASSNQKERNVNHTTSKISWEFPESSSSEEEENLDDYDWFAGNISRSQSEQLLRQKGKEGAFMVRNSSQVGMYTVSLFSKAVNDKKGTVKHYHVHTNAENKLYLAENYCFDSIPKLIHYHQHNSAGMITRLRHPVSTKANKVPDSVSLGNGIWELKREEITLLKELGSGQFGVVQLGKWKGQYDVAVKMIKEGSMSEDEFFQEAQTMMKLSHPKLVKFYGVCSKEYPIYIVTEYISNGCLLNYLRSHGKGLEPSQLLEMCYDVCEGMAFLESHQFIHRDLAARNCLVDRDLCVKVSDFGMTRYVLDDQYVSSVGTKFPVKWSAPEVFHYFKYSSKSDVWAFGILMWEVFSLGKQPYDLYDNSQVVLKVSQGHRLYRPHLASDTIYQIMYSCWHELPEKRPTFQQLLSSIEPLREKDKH
The experiment in a line: Inhibition of a panel of kinases (in vitro HotSpot kinase assay, 33P-ATP, 1 μM ATP), other kinases. The settings on record: BMX wild-type, read-out: BMX-WT IC50. As for the experimental part:
Example 63: Inhibition of a Panel of Kinases The degree of inhibition of a panel of kinases is determined using the in vitro HotSpot kinase assay (purified enzymes, ^33P-ATP, an appropriate substrate and 1 μM ATP).

The target of the next assay is T3, Btk (Homo sapiens, UniProt Q06187).
T3 construct: purified from insect cells as a full-length construct containing a N-terminal 6X-His tag; His6 (N); made in house; host or cells: insect cells (Method C)
The experiment in a line: Btk in vitro inhibitory activity (one of Method A TR-FRET, Method B electrophoretic mobility shift, Method C radiometric filter binding). The gist of the method:
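Three alternative formats were used. A radiometric filter-binding read used 8 nM full-length His-BTK with 0.2 mg/mL poly(Glu-Tyr) 4:1 (C); microfluidic separation of 1 μM FAM-peptide by 1 nM BTK gave IC50 from 12-point curves (B); TR-FRET at Km ATP, 0.5 nM Btk, gave Ki(app)-derived IC50 (A).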
A general note: A gel shift assay detects complexes by their altered migration in electrophoresis.

Setting [1] is: wild-type Btk, read-out: Btk-WT IC50.
Where [2] appears, read: method is one of A, B or C, not stated which, read-out: IC50 values against Btk.

T3 sequence (Q06187 whole entry): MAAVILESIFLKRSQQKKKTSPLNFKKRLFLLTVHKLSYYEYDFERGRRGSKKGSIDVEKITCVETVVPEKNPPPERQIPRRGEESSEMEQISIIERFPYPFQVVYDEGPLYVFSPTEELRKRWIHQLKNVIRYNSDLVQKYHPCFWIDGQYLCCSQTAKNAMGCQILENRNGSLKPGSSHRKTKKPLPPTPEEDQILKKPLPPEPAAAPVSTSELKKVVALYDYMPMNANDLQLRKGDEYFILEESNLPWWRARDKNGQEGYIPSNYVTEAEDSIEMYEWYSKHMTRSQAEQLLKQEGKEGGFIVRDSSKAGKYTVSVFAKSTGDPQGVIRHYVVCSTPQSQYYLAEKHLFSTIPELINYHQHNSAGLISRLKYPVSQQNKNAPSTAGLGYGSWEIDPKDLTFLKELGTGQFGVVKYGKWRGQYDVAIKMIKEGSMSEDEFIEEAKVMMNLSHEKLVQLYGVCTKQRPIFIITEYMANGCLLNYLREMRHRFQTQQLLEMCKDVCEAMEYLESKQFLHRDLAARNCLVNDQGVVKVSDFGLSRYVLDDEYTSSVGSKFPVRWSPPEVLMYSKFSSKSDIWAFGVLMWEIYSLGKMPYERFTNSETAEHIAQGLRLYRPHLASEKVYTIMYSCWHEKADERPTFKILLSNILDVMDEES

The term IC50 denotes the midpoint of a concentration-inhibition curve. Take `C=CC(=O)N1CC[C@H](Nc2n[nH]c3nccc(-c4ccc(CNC(=O)c5ccc(C(C)(C)C)cc5)c(F)c4)c23)C1` [Compound 44, (S)—N-(4-(3-((1-acryloylpyrrolidin-3-yl)amino)-1H-pyrazolo[3,4-b]pyridin-4-yl)-2-fluorobenzyl)-4-(tert-butyl)benzamide]: the values for the IC50 against TEC, at panel of kinases and at Btk (setting [1]) were 7940 nM, 5390 nM and 68.2 nM, respectively. Moreover, the TEC/Btk on TEC is recorded as 116.

In the case of `C=CC(=O)N1CCC[C@@H](Nc2n[nH]c3nccc(-c4ccc(CNC(=O)c5cc(C(C)C)on5)c(F)c4)c23)[C@H]1C` [Example 173, N-{[2-fluoro-4-(3-{[(2R,3R)-2-methyl-1-(prop-2-enoyl)piperidin-3-yl]amino}-1H-pyrazolo[3,4-b]pyridin-4-yl)phenyl]methyl}-5-(propan-2-yl)-1,2-oxazole-3-carboxamide], the IC50 against TEC was 9 nM; at panel of kinases, 6 nM; at Btk (setting [2]), under 10 nM; on Btk (setting [1]), 0.104 nM. On TEC, the TEC/Btk was 83.

For the compound `CC(=O)N[C@@H]1CCN(c2n[nH]c3nccc(-c4ccc(CNC(=O)c5cc(C(C)C)no5)c(F)c4)c23)C1` [Example 185, N-[(4-{3-[(3R)-3-acetamidopyrrolidin-1-yl]-1H-pyrazolo[3,4-b]pyridin-4-yl}-2-fluorophenyl)methyl]-3-(propan-2-yl)-1,2-oxazole-5-carboxamide], the values for the IC50 against TEC, on panel of kinases and at Btk (setting [1]) were 2240 nM, 1560 nM and 7.43 nM, respectively. Further, the TEC/Btk on TEC worked out at 301.

Consider `CC(C)(C)n1cc(C(=O)NCc2ccc(-c3ccnc4[nH]nc(N[C@@H]5CCNC5)c34)cc2F)cn1` [Example 76, 1-tert-butyl-N-{[2-fluoro-4-(3-{[(3R)-pyrrolidin-3-yl]amino}-1H-pyrazolo[3,4-b]pyridin-4-yl)phenyl]methyl}-1H-pyrazole-4-carboxamide], for which the IC50 on TEC amounted to 8720 nM; at panel of kinases, 8360 nM; on Btk (setting [1]), 51.1 nM. The TEC/Btk on TEC was 171.

Take `CC(C)(C)c1noc(C(=O)NCc2ccc(-c3ccnc4[nH]nc(N[C@H]5CCCNC5)c34)cc2F)n1` [Example 167, 3-tert-butyl-N-{[2-fluoro-4-(3-{[(3S)-piperidin-3-yl]amino}-1H-pyrazolo[3,4-b]pyridin-4-yl)phenyl]methyl}-1,2,4-oxadiazole-5-carboxamide]: the IC50 on TEC was over 10000 nM; at panel of kinases it was over 10000 nM; on Btk (setting [1]), 10.7 nM. In addition, the TEC/Btk at TEC is recorded as over 100.

`CC(C)c1nc(C(=O)NCc2ccc(-c3ccnc4[nH]nc(N5CC[C@@H](N)C5)c34)cc2F)no1` [Example 370, N-[(4-{3-[(3R)-3-aminopyrrolidin-1-yl]-1H-pyrazolo[3,4-b]pyridin-4-yl}-2-fluorophenyl)methyl]-5-(propan-2-yl)-1,2,4-oxadiazole-3-carboxamide]: the values for the IC50 on TEC, on panel of kinases and at Btk (setting [1]) were 3880 nM, 1740 nM and 6.98 nM, respectively.

For the compound `CC(=O)N[C@@H]1CCN(c2n[nH]c3nccc(-c4ccc(CNC(=O)c5coc(C(C)C)n5)c(F)c4)c23)C1` [Example 360, N-[(4-{3-[(3R)-3-acetamidopyrrolidin-1-yl]-1H-pyrazolo[3,4-b]pyridin-4-yl}-2-fluorophenyl)methyl]-2-(propan-2-yl)-1,3-oxazole-4-carboxamide], the IC50 against TEC came out at 3210 nM; at panel of kinases, 3430 nM; on Btk (setting [1]) it was 14.3 nM.

Take `C[C@H]1CC[C@@H](Nc2n[nH]c3nccc(-c4ccc(CN5CCn6c(cc7c6CC(C)(C)C7)C5=O)c(F)c4)c23)CN1C(=O)N(C)C` [Example 239, (2S,5R)-5-[(4-{4-[(7,7-dimethyl-1-oxo-1,3,4,6,7,8-hexahydro-2H-cyclopenta[4,5]pyrrolo[1,2-a]pyrazin-2-yl)methyl]-3-fluorophenyl}-1H-pyrazolo[3,4-b]pyridin-3-yl)amino]-N,N,2-trimethylpiperidine-1-carboxamide]: the values for the IC50 at TEC, on panel of kinases and on Btk (setting [1]) were 3880 nM, 3780 nM and 10.1 nM, respectively. The TEC/Btk on TEC turned out to be 384.

As for `C=CC(=O)N1CC[C@@H](Nc2n[nH]c3nccc(-c4cccc(NC(=O)c5ccc(C(C)(C)C)cc5)c4)c23)C1` [Example 263, 4-tert-butyl-N-[3-(3-{[(3R)-1-(prop-2-enoyl)pyrrolidin-3-yl]amino}-1H-pyrazolo[3,4-b]pyridin-4-yl)phenyl]benzamide], the IC50 against TEC was 1070 nM; at panel of kinases, 440 nM; at Btk (setting [1]), 11.6 nM. Moreover, the TEC/Btk at TEC was 092.

For `CC(C)(C)c1nc(C(=O)NCc2ccc(-c3ccnc4[nH]nc(N[C@H]5CC[C@H](N)CC5)c34)cc2F)no1` [Example 151, 5-tert-butyl-N-{[2-fluoro-4-(3-{[(1r,4r)-4-aminocyclohexyl]amino}-1H-pyrazolo[3,4-b]pyridin-4-yl)phenyl]methyl}-1,2,4-oxadiazole-3-carboxamide], the figures for the IC50 against TEC, on panel of kinases and at Btk (setting [1]) were 8270 nM, 8120 nM and 21.7 nM, respectively.

In the case of `CN1CC[C@H](Nc2n[nH]c3nccc(-c4ccc(CNC(=O)c5nc(C(C)(C)C)no5)c(F)c4)c23)C1` [Example 166, 3-tert-butyl-N-{[2-fluoro-4-(3-{[(3S)-1-methylpyrrolidin-3-yl]amino}-1H-pyrazolo[3,4-b]pyridin-4-yl)phenyl]methyl}-1,2,4-oxadiazole-5-carboxamide], the IC50 on TEC is over 10000 nM; on panel of kinases, over 10000 nM; at Btk (setting [2]) it was under 10 nM; at Btk (setting [1]) it was 3.12 nM. The TEC/Btk at TEC is on record as over 100.

Regarding `C[C@H]1CC[C@@H](Nc2n[nH]c3nccc(-c4ccc(CNC(=O)c5noc(C(C)(C)C)n5)c(F)c4)c23)CN1C(=O)CO` [Example 227, 5-tert-butyl-N-{[2-fluoro-4-(3-{[(3R,6S)-1-(hydroxyacetyl)-6-methylpiperidin-3-yl]amino}-1H-pyrazolo[3,4-b]pyridin-4-yl)phenyl]methyl}-1,2,4-oxadiazole-3-carboxamide], the IC50 on TEC came out at 205 nM; on panel of kinases it was 704 nM; at Btk (setting [1]), 0.458 nM. Moreover, the TEC/Btk on TEC is given as 448.

For `CC(C)(C)c1ccc(C(=O)NCc2ccc(-c3ccnc4[nH]nc(NC5CCNCC5)c34)cc2F)cc1` [Example 103, 4-tert-butyl-N-[(2-fluoro-4-{3-[(piperidin-4-yl)amino]-1H-pyrazolo[3,4-b]pyridin-4-yl}phenyl)methyl]benzamide], the IC50 is over 10000 nM at TEC, 4440 nM on panel of kinases and 172 nM on Btk (setting [1]). Besides, the TEC/Btk on TEC is given as over 100.

For the compound `CC#CC(=O)N1CC[C@@H](Nc2n[nH]c3nccc(-c4ccc(CNC(=O)c5ccc(C(C)(C)C)cc5)c(F)c4)c23)C1` [Compound 7, N-{[4-(3-{[(3R)-1-(but-2-ynoyl)pyrrolidin-3-yl]amino}-1H-pyrazolo[3,4-b]pyridin-4-yl)-2-fluorophenyl]methyl}-4-tert-butylbenzamide], the IC50 against TEC is 296 nM; at panel of kinases it was 274 nM; on Btk (setting [1]) it was 1.65 nM. Further, the TEC/Btk on TEC is 179.
